In ChEMBL document CHEMBL6134821, “Design, synthesis, and biological evaluation of novel BTK-targeting proteolysis targeting chimeras (PROTACs) with enhanced pharmacokinetic properties” (Eur J Med Chem, 2025):
Active and inactive are the calls of the source. The calls are words filed in the database; no cut-off is given here.

Columns and labels:
[1] = molecular target: T1, Protein cereblon/Tyrosine-protein kinase BTK (Homo sapiens, UniProt Q06187+Q96SW2); assay: PROTAC activity at CRBN/BTK in human JeKo-1 cells assessed as BTK degradation at 10 nM incubated for 24 hrs by Western blot analysis relative to control; type: cell-based
Target sequence in this assay (Q06187 2-659 limits assumed): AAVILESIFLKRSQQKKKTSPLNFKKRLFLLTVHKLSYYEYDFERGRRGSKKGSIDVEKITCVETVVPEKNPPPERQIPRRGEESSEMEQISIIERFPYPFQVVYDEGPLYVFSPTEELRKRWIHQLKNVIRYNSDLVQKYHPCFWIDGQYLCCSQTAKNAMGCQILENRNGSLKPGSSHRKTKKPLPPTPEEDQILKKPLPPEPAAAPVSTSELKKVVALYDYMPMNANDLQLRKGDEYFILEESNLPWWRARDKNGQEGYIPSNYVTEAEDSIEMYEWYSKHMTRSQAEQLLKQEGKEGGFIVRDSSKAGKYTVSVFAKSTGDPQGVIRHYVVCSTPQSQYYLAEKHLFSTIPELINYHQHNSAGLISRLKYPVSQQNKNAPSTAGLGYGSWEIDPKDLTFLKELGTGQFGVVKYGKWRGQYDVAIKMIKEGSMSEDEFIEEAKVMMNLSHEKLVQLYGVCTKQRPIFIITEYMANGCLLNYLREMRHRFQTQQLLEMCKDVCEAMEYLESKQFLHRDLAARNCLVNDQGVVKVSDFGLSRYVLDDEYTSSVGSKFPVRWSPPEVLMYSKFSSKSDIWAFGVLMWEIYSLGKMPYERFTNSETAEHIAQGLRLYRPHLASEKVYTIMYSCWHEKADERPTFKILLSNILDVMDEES
Target sequence in this assay (Q96SW2 whole entry partner): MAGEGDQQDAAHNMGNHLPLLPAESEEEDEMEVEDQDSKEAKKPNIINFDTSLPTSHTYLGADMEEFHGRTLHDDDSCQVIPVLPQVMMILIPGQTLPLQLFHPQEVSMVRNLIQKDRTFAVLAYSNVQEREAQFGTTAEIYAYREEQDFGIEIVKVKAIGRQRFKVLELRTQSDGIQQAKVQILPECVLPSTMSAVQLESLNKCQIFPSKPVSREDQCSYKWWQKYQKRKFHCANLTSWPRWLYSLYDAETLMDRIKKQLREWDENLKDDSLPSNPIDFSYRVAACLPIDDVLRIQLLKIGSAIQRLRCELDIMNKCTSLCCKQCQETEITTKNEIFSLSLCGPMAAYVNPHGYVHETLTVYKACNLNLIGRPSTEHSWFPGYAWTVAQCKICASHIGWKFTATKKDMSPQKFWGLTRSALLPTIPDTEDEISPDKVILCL

[2] = molecular target: T1, Protein cereblon/Tyrosine-protein kinase BTK; assay: PROTAC activity at CRBN/BTK in human JeKo-1 cells assessed as BTK degradation at 30 nM incubated for 24 hrs by Western blot analysis relative to control; type: cell-based
Target sequence in this assay (Q06187 2-659 limits assumed): as the sequence (Q06187 2-659 limits assumed) above
Target sequence in this assay (Q96SW2 whole entry partner): as the sequence (Q96SW2 whole entry partner) above

[3] = molecular target: T1, Protein cereblon/Tyrosine-protein kinase BTK; assay: PROTAC activity at CRBN/BTK in human JeKo-1 cells assessed as BTK degradation at 100 nM incubated for 24 hrs by Western blot analysis relative to control; type: cell-based
Target sequence in this assay (Q06187 2-659 limits assumed): as the sequence (Q06187 2-659 limits assumed) above
Target sequence in this assay (Q96SW2 whole entry partner): as the sequence (Q96SW2 whole entry partner) above

[4] = Cytotoxicity against human TMD8 cells harboring wild-type BTK assessed as inhibition of cell viability incubated for 5 days by CCK8 assay; type: functional, cell-based; settings: TMD8, 120 h
[5] = Cytotoxicity against human TMD8 cells harboring BTK C481S mutant assessed as inhibition of cell viability incubated for 5 days by CCK8 assay; type: functional, cell-based; settings: TMD8, 120 h
[6] = molecular target: T1, Protein cereblon/Tyrosine-protein kinase BTK; assay: PROTAC activity at CRBN/BTK in human JeKo-1 cells assessed as BTK degradation incubated for 24 hrs by Western blot analysis; type: cell-based
Target sequence in this assay (Q06187 whole entry): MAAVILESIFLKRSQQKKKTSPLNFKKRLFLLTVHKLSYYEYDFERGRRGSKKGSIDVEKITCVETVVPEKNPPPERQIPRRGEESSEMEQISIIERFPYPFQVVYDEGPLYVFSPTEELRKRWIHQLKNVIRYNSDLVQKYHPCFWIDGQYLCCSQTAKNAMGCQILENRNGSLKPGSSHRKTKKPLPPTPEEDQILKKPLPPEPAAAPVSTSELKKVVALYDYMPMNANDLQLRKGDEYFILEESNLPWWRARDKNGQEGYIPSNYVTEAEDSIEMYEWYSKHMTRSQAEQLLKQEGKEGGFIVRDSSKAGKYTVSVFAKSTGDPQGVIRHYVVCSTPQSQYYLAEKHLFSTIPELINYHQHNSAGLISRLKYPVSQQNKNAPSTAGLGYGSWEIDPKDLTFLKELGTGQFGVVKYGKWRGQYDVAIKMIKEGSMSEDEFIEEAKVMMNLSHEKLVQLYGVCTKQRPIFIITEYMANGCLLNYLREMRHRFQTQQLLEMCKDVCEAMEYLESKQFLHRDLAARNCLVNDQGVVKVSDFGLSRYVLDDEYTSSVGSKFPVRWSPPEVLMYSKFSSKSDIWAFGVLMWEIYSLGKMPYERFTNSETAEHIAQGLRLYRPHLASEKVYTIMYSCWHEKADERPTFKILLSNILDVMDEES
Target sequence in this assay (Q96SW2 whole entry): as the sequence (Q96SW2 whole entry partner) above

[7] = Microsomal stability in human liver microsomes assessed as half life measured up to 60 mins in presence of NADPH by LC-MS/MS analysis; type: ADME, Microsome
[8] = Microsomal stability in human liver microsomes assessed as intrinsic clearance in microsomes measured up to 60 mins in presence of NADPH by LC-MS/MS analysis; type: ADME, Microsome; settings: read-out: CLH
[9] = Microsomal stability in human liver microsomes assessed as intrinsic clearance in liver measured up to 60 mins in presence of NADPH by LC-MS/MS analysis; type: ADME, Microsome; settings: read-out: CLH
[10] = Microsomal stability in human liver microsomes assessed as compound remaining measured up to 60 mins in presence of NADPH by LC-MS/MS analysis; type: ADME, Microsome; settings: read-out: Stability
[11] = Microsomal stability in human liver microsomes assessed as compound remaining measured up to 60 mins by LC-MS/MS analysis; type: ADME, Microsome; settings: read-out: Stability
[12] = molecular target: T1, Protein cereblon/Tyrosine-protein kinase BTK; assay: PROTAC activity at CRBN/BTK in human JeKo-1 cells assessed as BTK degradation up to 100 nM incubated for 24 hrs by Western blot analysis; type: cell-based
Target sequence in this assay (Q06187 2-659 limits assumed): as the sequence (Q06187 2-659 limits assumed) above
Target sequence in this assay (Q96SW2 whole entry partner): as the sequence (Q96SW2 whole entry partner) above

| Structure (SMILES) | Activity [1] | Activity [2] | Activity [3] | also measured |
| --- | --- | --- | --- | --- |
| O=C1CCC(N2Cc3cc(N4CCC(CCN5CCC(CC(=O)N[C@H]6CC[C@H](Nc7ncnc8[nH]cc(C(=O)c9ccc(Oc%10ccccc%10)cc9Cl)c78)C6)CC5)CC4)c(F)cc3C2=O)C(=O)N1 (stereo partly drawn) | 88% | 94% | 98% |  |
| NC(=O)c1ncc(N2CCCCC2)nc1Nc1ccc(C2CCN(C[C@@H]3CCN(c4ccc5c(c4)C(=O)N(C4CCC(=O)NC4=O)C5=O)C3)CC2)cc1 (stereo partly drawn) |  |  |  | IC50 [4]: 8.8 nM; IC50 [5]: 18 nM |
| O=C1CCC(N2Cc3cc(N4CCC(CCN5CCC(CC(=O)N6CCN(c7ncnc8[nH]cc(C(=O)c9ccc(Oc%10ccccc%10)cc9Cl)c78)CC6)CC5)CC4)c(F)cc3C2=O)C(=O)N1 (stereo not drawn) | 65% | 53% | 47% |  |
| O=C1CCC(c2ccc(N3CCC(CN4CCC(CC(=O)N[C@H]5CC[C@H](Nc6ncnc7[nH]cc(C(=O)c8ccc(Oc9ccccc9)cc8)c67)C5)CC4)CC3)nc2)C(=O)N1 (stereo partly drawn) | 84% | 91% | 93% | DC50 [6]: 3.1 nM; half-life [7]: 1.13 h; microsomal CLint [8]: 20.3 µL/min/mg; CLint scaled [9]: 18.2 mL/min/kg; remaining at 1 h [10]: 53.9%; remaining at 1 h [11]: 94.6% |
| O=C1CCC(c2ccc(N3CC4(CCN(CC(=O)N[C@H]5CC[C@@H](Nc6ncnc7[nH]cc(C(=O)c8ccc(Oc9ccccc9)cc8)c67)CC5)CC4)C3)cc2)C(=O)N1 (stereo partly drawn) |  | 4% | 23% |  |
| O=C1CCC(N2Cc3cc(N4CCC(CCN5CCC(CC(=O)N[C@@H]6CCC[C@H](Nc7ncnc8[nH]cc(C(=O)c9ccc(Oc%10ccccc%10)cc9Cl)c78)C6)CC5)CC4)c(F)cc3C2=O)C(=O)N1 (stereo partly drawn) | 41% | 46% | 54% |  |
| O=C1CCC(N2Cc3cc(N4CCC(CCN5CCC(CC(=O)N[C@H]6CC[C@@H](Nc7ncnc8[nH]cc(C(=O)c9ccc(F)cc9Cl)c78)CC6)CC5)CC4)c(F)cc3C2=O)C(=O)N1 (stereo partly drawn) | 11% | 7% | 23% |  |
| O=C1CCC(N2Cc3cc(N4CCC(CCN5CCC(CC(=O)N[C@H]6CC[C@@H](Nc7ncnc8[nH]cc(C(=O)c9ccccc9Cl)c78)CC6)CC5)CC4)c(F)cc3C2=O)C(=O)N1 (stereo partly drawn) | 18% | 32% | 36% |  |
| O=C1CCC(N2Cc3cc(N4CCC(CCN5CCC(CC(=O)N[C@H]6CC[C@@H](Nc7ncnc8[nH]cc(C(=O)c9ccc(Oc%10ccccc%10)cc9Cl)c78)CC6)CC5)CC4)c(F)cc3C2=O)C(=O)N1 (stereo partly drawn) | 83% | 92% | 89% | IC50 [4]: 23.9 nM; IC50 [5]: 27.4 nM |
| O=C1CCC(N2Cc3cc(N4CCC(CCN5CCC(CC(=O)N6CCC(Nc7ncnc8[nH]cc(C(=O)c9ccc(Oc%10ccccc%10)cc9Cl)c78)CC6)CC5)CC4)c(F)cc3C2=O)C(=O)N1 (stereo not drawn) | 80% | 90% | 94% |  |
| O=C1CCC(c2ccc(N3CCC(CN4CCC(CC(=O)N[C@H]5CC[C@H](Nc6ncnc7[nH]cc(C(=O)c8ccc(Oc9ccccc9)cc8)c67)C5)CC4)CC3)cc2)C(=O)N1 (stereo partly drawn) | 69% | 85% | 88% | DC50 [6]: 3.6 nM; half-life [7]: 1.47 h; microsomal CLint [8]: 15.8 µL/min/mg; CLint scaled [9]: 14.2 mL/min/kg; remaining at 1 h [10]: 55.6%; remaining at 1 h [11]: 96.8% |
| O=C1CCC(N2Cc3cc(N4CCC(CCN5CCC(CC(=O)N[C@@H]6CC[C@H](Nc7ncnc8[nH]cc(C(=O)c9ccc(Oc%10ccccc%10)cc9Cl)c78)C6)CC5)CC4)c(F)cc3C2=O)C(=O)N1 (stereo partly drawn) | 77% | 91% | 88% |  |
| O=C1CCC(c2ccc(N3CCC(CCN4CCN(CC(=O)N[C@H]5CC[C@@H](Nc6ncnc7[nH]cc(C(=O)c8ccc(Oc9ccccc9)cc8)c67)CC5)CC4)CC3)cc2)C(=O)N1 (stereo partly drawn) | 15% | 36% | 53% |  |
| O=C1CCC(c2ccc(N3CCC(CCN4CCC(CC(=O)N[C@H]5CC[C@@H](Nc6ncnc7[nH]cc(C(=O)c8ccc(Oc9ccccc9)cc8Cl)c67)CC5)CC4)CC3)cc2)C(=O)N1 (stereo partly drawn) | 79% | 85% | 89% |  |
| O=C1CCC(c2ccc(N3CCC(CCN4CCC(CCN[C@H]5CC[C@@H](Nc6ncnc7[nH]cc(C(=O)c8ccc(Oc9ccccc9)cc8)c67)CC5)CC4)CC3)cc2)C(=O)N1 (stereo partly drawn) |  | 15% | 39% |  |
| O=C1CCC(c2ccc(N3CCC(CN4CCC(CC(=O)N[C@H]5CC[C@@H](Nc6ncnc7[nH]cc(C(=O)c8ccc(Oc9ccccc9)cc8)c67)CC5)CC4)C3)cc2)C(=O)N1 (stereo partly drawn) | 4% | 11% | 6% |  |
| O=C1CCC(n2ncc(N3CCC(CCN4CCC(CC(=O)N[C@H]5CC[C@@H](Nc6ncnc7[nH]cc(C(=O)c8ccc(Oc9ccccc9)cc8Cl)c67)CC5)CC4)CC3)c(Cl)c2=O)C(=O)N1 (stereo partly drawn) | 64% | 88% | 91% |  |
| O=C1CCN(c2cccc(C(=O)N3CCC(CCN4CCC(CC(=O)N[C@H]5CC[C@@H](Nc6ncnc7[nH]cc(C(=O)c8ccc(Oc9ccccc9)cc8Cl)c67)CC5)CC4)CC3)c2)C(=O)N1 |  |  | 24% |  |
| O=C1CCC(N2Cc3cc(N4CCC(CCN5CCC(CC(=O)N[C@H]6CC[C@@H](Nc7ncnc8[nH]cc(C(=O)c9ccc(Oc%10ccccc%10)cc9)c78)CC6)CC5)CC4)c(F)cc3C2=O)C(=O)N1 (stereo partly drawn) | 87% | 95% | 96% |  |
| CN1C(=O)CCC(c2ccc(N3CCC(CCN4CCC(CC(=O)N[C@H]5CC[C@H](Nc6ncnc7[nH]cc(C(=O)c8ccc(Oc9ccccc9)cc8)c67)C5)CC4)CC3)cc2)C1=O (stereo partly drawn) |  |  |  | Activity [12]: inactive |
| O=C1CCC(NC(=O)c2ccc(N3CCC(CCN4CCC(CC(=O)N[C@H]5CC[C@@H](Nc6ncnc7[nH]cc(C(=O)c8ccc(Oc9ccccc9)cc8Cl)c67)CC5)CC4)CC3)cn2)C(=O)N1 (stereo partly drawn) | 4% | 54% | 73% |  |
| CN1C(=O)CCC(c2ccc(N3CCC(CCN4CCC(CC(=O)N[C@H]5CC[C@H](Nc6ncnc7[nH]cc(C(=O)c8ccc(Oc9ccccc9)cc8)c67)C5)CC4)CC3)nc2)C1=O (stereo partly drawn) |  |  |  | Activity [12]: inactive |
| O=C1CCC(c2ccc(N3CCC(CCN4CCC(CC(=O)N[C@H]5CC[C@@H](Nc6ncnc7[nH]cc(C(=O)c8ccc(Oc9ccccc9)cc8)c67)CC5)CC4)CC3)cc2)C(=O)N1 (stereo partly drawn) | 69% | 79% | 69% |  |
| Cc1ccc(C(=O)N2CCC(CCN3CCC(CC(=O)N[C@H]4CC[C@@H](Nc5ncnc6[nH]cc(C(=O)c7ccc(Oc8ccccc8)cc7Cl)c56)CC4)CC3)CC2)cc1N1CCC(=O)NC1=O | 26% | 60% | 81% |  |
| O=C1CCC(c2cccc(N3CCC(CCN4CCC(CC(=O)N[C@H]5CC[C@@H](Nc6ncnc7[nH]cc(C(=O)c8ccc(Oc9ccccc9)cc8Cl)c67)CC5)CC4)CC3)c2)C(=O)N1 (stereo partly drawn) | 45% | 62% | 77% |  |
| O=C1CCC(c2ccc(N3CCC(CN4CCC(CC(=O)N[C@H]5CC[C@@H](Nc6ncnc7[nH]cc(C(=O)c8ccc(Oc9ccccc9)cc8)c67)CC5)CC4)CC3)cc2)C(=O)N1 (stereo partly drawn) | 50% | 51% | 74% |  |
| O=C1CCC(N2Cc3cc(N4CCC(CCN5CCC(CC(=O)N[C@H]6CC[C@H](Nc7ncnc8[nH]cc(C(=O)c9ccc(Oc%10ccccc%10)cc9Cl)c78)CC6)CC5)CC4)c(F)cc3C2=O)C(=O)N1 (stereo partly drawn) | 80% | 98% | 98% |  |
| O=C1CCN(c2ccc(C(=O)N3CCC(CCN4CCC(CC(=O)N[C@H]5CC[C@@H](Nc6ncnc7[nH]cc(C(=O)c8ccc(Oc9ccccc9)cc8Cl)c67)CC5)CC4)CC3)cc2)C(=O)N1 |  | 9% | 35% |  |
| O=C(c1ccc(Oc2ccccc2)cc1Cl)c1c[nH]c2ncnc(N[C@@H]3CC[C@@H](CO)OC3)c12 [NEMTABRUTINIB] |  |  |  | IC50 [4]: 335 nM; IC50 [5]: 594 nM |
| O=C1CCC(N2Cc3cc(N4CCC(CCN5CCC(CC(=O)NC6CCN(c7ncnc8[nH]cc(C(=O)c9ccc(Oc%10ccccc%10)cc9Cl)c78)CC6)CC5)CC4)c(F)cc3C2=O)C(=O)N1 (stereo not drawn) | 56% | 76% | 88% |  |
